From US10640457B2, “Histone acetyltransferase activators and uses thereof” (The Trustees of Columbia University in the City of New York, priority 2009, dated 2020)
Where “and” joins values, the source holds several entries; their conditions need not be identical. Equal entries are not always repeated.

Legend:
Aβ-infused mice = test: Contextual and cued fear conditioning in Aβ42-infused mice (TSA); type: in vivo
Description: HDAC inhibition rescues the defect in associative memory by Aβ elevation. The APP and PS1 transgenes could affect neuronal function through different mechanisms [B23, B24] (each herein incorporated by reference in its entirety), including direct effects by Aβ. Full-length APP and its cleavage products could differently impact H4 acetylation. To separate Aβ effects from other effects of APP and PS1 overexpression, we next determined whether Aβ per se is responsible for the deficit in H4 acetylation observed in our studies on transgenic mice. […] (each herein incorporated by reference in its entirety), we applied a preparation containing oligomeric Aβ42 (200 nM in a volume of […], slowly over 1 min) into dorsal hippocampi (FIG. 24A-B), 15 min prior to training for fear conditioning, with injection of TSA or vehicle (2 mg/kg body weight, 2 hrs prior to training, i.p.). Infusion occurred 5-7 days after implanting cannulas onto dorsal hippocampi. We found no difference in the freezing behavior among the 4 groups of mice during the training phase of the fear conditioning (F3,41=0.04188, p=0.9884, n=8-14/group; FIG. 24C). Twenty-four hours later, freezing behavior was decreased in Aβ-infused mice compared to vehicle-infused mice in the analysis of the contextual learning (F3,41=3.619, p=0.0209, n=8-14/group; FIG. 24C). Freezing in Aβ-infused mice was about 25% that of vehicle-infused mice [Aβ-infused mice: 8.580±2.119% vs. vehicle-infused mice: 31.46±5.373% n=12 and 11 males, respectively; t=3.147, p=0.0049; FIG. 24C].

CBP = target: T1, CBP (Homo sapiens, UniProt Q92793); test: In vitro HAT activation assay, CBP; type: biochemical
T1 construct: we will use the catalytic domain of human CBP, PCAF, p300 and GCNS (Enzo Life Sci., USA); purchased Enzo Life Sci
Description: Compounds will be tested for HAT activator activity first, using the HAT Assay kit from Active Motif (USA, CA). For this assay, we will use the catalytic domain of human CBP, PCAF, p300 and GCNS (Enzo Life Sci., USA). The catalytic domains for the remaining HATs will be produced using New England Biolabs K. lactis Protein Expression Kit. […] When assayed against all other HATs, they must show at least a 50 fold greater potency towards CBP and/or PCAF.

[1] = in vivo, ip
HDAC8 = target: T2, HDAC8 (Homo sapiens, UniProt Q9BY41); test: HDAC8 fluorogenic activity assay; conditions: for % Activity: Repeat1/Repeat2, listed as OA2
T2 sequence (Q9BY41 1-377): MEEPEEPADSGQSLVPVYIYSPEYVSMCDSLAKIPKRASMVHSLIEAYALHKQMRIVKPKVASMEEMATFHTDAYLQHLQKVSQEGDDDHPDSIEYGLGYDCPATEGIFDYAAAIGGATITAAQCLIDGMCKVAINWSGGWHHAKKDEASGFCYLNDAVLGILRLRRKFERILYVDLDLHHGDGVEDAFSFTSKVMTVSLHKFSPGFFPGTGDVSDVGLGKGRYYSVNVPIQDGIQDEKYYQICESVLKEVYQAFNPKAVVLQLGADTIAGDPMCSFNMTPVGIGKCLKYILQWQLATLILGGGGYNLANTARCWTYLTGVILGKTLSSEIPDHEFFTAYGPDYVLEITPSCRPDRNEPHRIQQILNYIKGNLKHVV

HDAC11 = target: T3, HDAC11 (Homo sapiens, UniProt Q96DB2); test: HDAC11 fluorogenic activity assay; conditions: for % Activity: Repeat1/Repeat2, listed as OA2
T3 sequence (Q96DB2 1-347): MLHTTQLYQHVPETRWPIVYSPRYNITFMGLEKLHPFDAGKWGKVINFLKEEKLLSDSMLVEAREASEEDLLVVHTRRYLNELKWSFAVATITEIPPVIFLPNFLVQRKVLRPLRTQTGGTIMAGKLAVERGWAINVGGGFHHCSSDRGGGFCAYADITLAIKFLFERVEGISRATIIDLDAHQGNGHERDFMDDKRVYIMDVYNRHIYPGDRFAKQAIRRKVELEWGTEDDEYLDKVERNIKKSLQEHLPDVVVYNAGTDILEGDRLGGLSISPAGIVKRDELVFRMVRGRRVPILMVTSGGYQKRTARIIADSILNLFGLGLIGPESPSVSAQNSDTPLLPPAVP

HDAC5FL = HDAC5FL (Homo sapiens, UniProt Q9UQL6); test: HDAC5FL fluorogenic activity assay; conditions: Repeat1/Repeat2, listed as OA2
Sirtuin 2 = target: T4, Sirtuin 2 (Homo sapiens, UniProt Q8IXJ6); test: Sirtuin 2 fluorogenic activity assay; conditions: for % Activity: Repeat1/Repeat2, listed as OA2
T4 sequence (Q8IXJ6 1-389): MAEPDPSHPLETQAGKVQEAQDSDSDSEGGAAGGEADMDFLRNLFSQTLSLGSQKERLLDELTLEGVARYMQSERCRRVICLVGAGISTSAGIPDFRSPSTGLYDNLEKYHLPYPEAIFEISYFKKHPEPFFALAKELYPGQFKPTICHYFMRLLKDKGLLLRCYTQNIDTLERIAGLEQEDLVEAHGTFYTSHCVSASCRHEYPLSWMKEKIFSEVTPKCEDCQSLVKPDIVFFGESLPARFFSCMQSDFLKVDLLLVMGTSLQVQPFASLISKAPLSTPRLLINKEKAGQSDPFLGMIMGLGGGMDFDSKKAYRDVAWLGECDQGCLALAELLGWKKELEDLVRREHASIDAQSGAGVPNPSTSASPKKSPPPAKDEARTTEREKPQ

HDAC5FL, sequence (Q9UQL6 whole entry): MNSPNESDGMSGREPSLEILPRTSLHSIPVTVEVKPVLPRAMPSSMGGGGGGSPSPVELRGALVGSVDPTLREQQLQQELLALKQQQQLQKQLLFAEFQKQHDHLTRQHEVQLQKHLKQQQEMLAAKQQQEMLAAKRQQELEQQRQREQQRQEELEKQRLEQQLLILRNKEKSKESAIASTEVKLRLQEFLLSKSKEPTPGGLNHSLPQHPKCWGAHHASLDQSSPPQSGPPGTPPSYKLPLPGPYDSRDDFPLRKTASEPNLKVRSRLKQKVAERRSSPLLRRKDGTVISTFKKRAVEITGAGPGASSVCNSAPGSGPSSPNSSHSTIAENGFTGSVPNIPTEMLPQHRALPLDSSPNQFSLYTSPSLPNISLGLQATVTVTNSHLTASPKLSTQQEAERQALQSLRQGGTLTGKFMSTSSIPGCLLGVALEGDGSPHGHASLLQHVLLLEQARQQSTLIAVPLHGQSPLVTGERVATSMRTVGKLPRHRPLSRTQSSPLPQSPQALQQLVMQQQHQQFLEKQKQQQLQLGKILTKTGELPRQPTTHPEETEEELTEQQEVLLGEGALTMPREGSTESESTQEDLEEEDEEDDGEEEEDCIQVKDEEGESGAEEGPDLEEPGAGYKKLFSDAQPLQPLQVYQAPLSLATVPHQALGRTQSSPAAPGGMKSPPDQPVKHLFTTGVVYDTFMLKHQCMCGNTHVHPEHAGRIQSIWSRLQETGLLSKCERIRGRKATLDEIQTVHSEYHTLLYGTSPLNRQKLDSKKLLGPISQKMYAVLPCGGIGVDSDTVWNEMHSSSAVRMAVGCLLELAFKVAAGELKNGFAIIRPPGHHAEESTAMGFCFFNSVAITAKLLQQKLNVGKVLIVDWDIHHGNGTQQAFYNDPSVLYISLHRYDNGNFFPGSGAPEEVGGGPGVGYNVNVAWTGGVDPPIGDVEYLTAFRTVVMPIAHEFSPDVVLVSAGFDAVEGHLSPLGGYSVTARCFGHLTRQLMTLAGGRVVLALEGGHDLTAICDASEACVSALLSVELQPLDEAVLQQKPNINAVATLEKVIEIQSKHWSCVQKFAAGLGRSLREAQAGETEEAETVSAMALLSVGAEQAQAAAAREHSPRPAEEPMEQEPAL
T1 sequence (Q92793 1323-1700 limits assumed): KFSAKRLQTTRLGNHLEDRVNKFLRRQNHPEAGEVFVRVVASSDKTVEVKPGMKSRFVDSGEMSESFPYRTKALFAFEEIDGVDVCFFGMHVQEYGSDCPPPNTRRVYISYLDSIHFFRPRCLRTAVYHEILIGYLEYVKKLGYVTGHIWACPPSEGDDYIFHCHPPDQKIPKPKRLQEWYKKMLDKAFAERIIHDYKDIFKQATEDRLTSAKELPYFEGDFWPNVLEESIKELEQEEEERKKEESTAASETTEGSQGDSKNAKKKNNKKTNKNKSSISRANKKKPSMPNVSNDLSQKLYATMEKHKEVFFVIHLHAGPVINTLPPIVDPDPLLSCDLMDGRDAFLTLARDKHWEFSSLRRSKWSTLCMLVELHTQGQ

CC(/C=C/C(=O)NO)=C\[C@@H](C)C(=O)c1ccc(N(C)C)cc1 [TSA, trichostatin A]
freezing time relative to Aβ-infused mice (Aβ-infused mice; Aβ-infused mice injected with TSA): about 300%
deficit in freezing responses in Aβ-infused mice (Aβ-infused mice; TSA i.p. 2 hrs before training): ameliorates
freezing, contextual fear conditioning 24 hrs after training (Aβ-infused mice; TSA+Aβ treated mice, TSA 2 mg/kg i.p. 2 hrs prior to training, Aβ42 200 nM): 26.17±4.747%
freezing, contextual fear conditioning 24 hrs after training (Aβ-infused mice; TSA-treated, vehicle-infused mice): 27.01±7.246%
cued fear conditioning, freezing among the 4 groups (Aβ-infused mice; pre-CS and CS): did not find a difference

CCOc1cccc(OCCN(C)C)c1C(=O)Nc1ccc(Cl)c(C(F)(F)F)c1 [YF2]
EC50 (CBP): 2.7 µM
dose up to which no adverse effects were induced [1]: up to 300 mg/kg
IC50 (HDAC8): > 200 µM
% Activity (HDAC8; OA2 Log[nM] 0.5): 101.88% and 103.15%
% Activity (HDAC8; OA2 Log[nM] 1.5): 102.04%
% Activity (HDAC8; OA2 Log[nM] 2.0): 108.80%
% Activity (HDAC8; OA2 Log[nM] 3.0): 84.45%
% Activity (HDAC8; OA2 Log[nM] 3.5): 109.88%
% Activity (HDAC8; OA2 Log[nM] 4.5): 85.17% and 86.60%
% Activity (HDAC8; OA2 Log[nM] 5.3): 58.33% and 105.63%
IC50 (HDAC11): > 200 µM
% Activity (HDAC11; OA2 Log[nM] 0.5): 86.81%
% Activity (HDAC11; OA2 Log[nM] 4.5): 108.09%
% Activity (HDAC11; OA2 Log[nM] 5.3): 132.07% and 115.35%
% Activity (HDAC5FL; OA2 Log[nM] 0.5): 99.80% and 92.90%
% Activity (HDAC5FL; OA2 Log[nM] 1.0): 102.59% and 97.50%
% Activity (HDAC5FL; OA2 Log[nM] 1.5): 103.20% and 104.10%
% Activity (HDAC5FL; OA2 Log[nM] 2.0): 108.64% and 106.80%
% Activity (HDAC5FL; OA2 Log[nM] 2.5): 108.60% and 107.17%
% Activity (HDAC5FL; OA2 Log[nM] 3.0): 105.76% and 99.80%
% Activity (HDAC5FL; OA2 Log[nM] 3.5): 101.30% and 99.30%
% Activity (HDAC5FL; OA2 Log[nM] 4.0): 104.91% and 104.82%
% Activity (HDAC5FL; OA2 Log[nM] 4.5): 95.40% and 94.11%
% Activity (HDAC5FL; OA2 Log[nM] 5.3): 68.63% and 94.13%
IC50 (Sirtuin 2): > 200 µM
% Activity (Sirtuin 2; OA2 Log[nM] 0.5): 97.71% and 101.89%
% Activity (Sirtuin 2; OA2 Log[nM] 1.0): 96.21% and 97.38%
% Activity (Sirtuin 2; OA2 Log[nM] 1.5): 98.59% and 101.33%
% Activity (Sirtuin 2; OA2 Log[nM] 2.0): 94.20% and 99.91%
% Activity (Sirtuin 2; OA2 Log[nM] 2.5): 94.74% and 96.43%
% Activity (Sirtuin 2; OA2 Log[nM] 3.0): 94.53% and 98.73%
% Activity (Sirtuin 2; OA2 Log[nM] 3.5): 96.80% and 98.23%
% Activity (Sirtuin 2; OA2 Log[nM] 4.0): 97.71% and 98.83%
% Activity (Sirtuin 2; OA2 Log[nM] 4.5): 92.45% and 95.14%
% Activity (Sirtuin 2; OA2 Log[nM] 5.3): 98.64% and 99.53%
